Reference: patent publication US12527886B2, “Radiopharmaceuticals and composition for thrombus imaging” (THE ASAN FOUNDATION, priority 2020, dated 2026)

What was measured:
[1] = Stability of Tc-99m labeled compound, labeling purity by HPLC; format: physicochemical; details: Ex 3-3
[2] = as above; format: physicochemical; details: for radiochemical purity: cysteine and VB1, until 4 hours (Table 5)
Description: 2 mL of Tc-99m was added dropwise to a lyophilized vial including 0.1 mg of GP-104, 15 μg of SnCl2, and 10 μg of cysteine, the vial was allowed to stand at room temperature for 10 minutes, and the reaction was terminated by adjusting pH to 7 using a NaOH solution. Labeling purity was confirmed to be 93.21% by HPLC (analysis conditions: Luna C18 250×4.6 mm, phosphate buffer:acetonitrile (100:0, 0 to 5 minutes; 80:20, 5 to 10 minutes; 80:20, 17 minutes; 100:0, 17.1 minutes). 100:0. 20 min), 1.0 mL/min, UV=280 nm).
In order to confirm the effect of cysteine addition after the reaction, the following experiment was performed: 0.1 mg of GP-104 was dissolved in water for injection, the pH was adjusted to about 3.5 when 10 μL of SnCl2 (1.5 mg/mL) and 2 mL of Tc-99m were added thereto, and the resulting mixture was allowed to stand at room temperature for 10 minutes. The reaction was terminated by adjusting the pH to 7 using a NaOH solution and 10 μL of cysteine (1.0 mg/mL). Labeling purity was confirmed to be 91.4% using HPLC in the same manner as in Example 2-7.
After 0.1 mg of GP-104 was dissolved in water for injection, pH was adjusted to about 3.5 and the resulting solution was allowed to stand at room temperature for 10 minutes when 10 μL of SnCl2 (1.5 mg/mL), 10 μL of cysteine (1.0 mg/mL) and 2 mL of Tc-99m were added thereto, and the reaction was terminated by adjusting the pH to 7 using a NaOH solution. Labeling purity was confirmed to be 94.84% using HPLC in the same manner as in Example 2-7.
HCl and NaOH was additionally added dropwise to the solution of Example 2-8 to perform a stability evaluation by adjusting the final pH of the solution to acidic (pH 5.5) and basic (pH 8.5) conditions, and labeling purity was confirmed using HPLC in the same manner as in Example 2-7.
HCl and NaOH was additionally added dropwise to the solution of Example 2-9 to perform a stability evaluation by adjusting the final pH of the solution to acidic (pH 5.5) and basic (pH 8.5) conditions, and labeling purity was confirmed using HPLC in the same manner as in Example 2-7.
HCl and NaOH was additionally added dropwise to the solution of Example 2-10 to perform a stability evaluation by adjusting the final pH of the solution to acidic (pH 5.5) and basic (pH 8.5) conditions, and labeling purity was confirmed using HPLC in the same manner as in Example 2-7.
0.1 mg of GP-105 was dissolved in water for injection, the pH was adjusted to about 3.5 when 10 μL of SnCl2 (1.5 mg/mL) and 2 mL of Tc-99m were added thereto, and the resulting mixture was allowed to stand at room temperature for 10 minutes. The reaction was terminated by adjusting the pH to 7 using a NaOH solution and 10 μL of cysteine (1.0 mg/mL). Labeling purity was confirmed to be 98.1% using HPLC in the same manner as in Example 2-7.
HCl and NaOH was additionally added dropwise to the solution of Example 2-12 to perform a stability evaluation by adjusting the final pH of the solution to acidic (pH 5.5) and basic (pH 8.5) conditions, and labeling purity was confirmed using HPLC in the same manner as in Example 2-7.
HCl and NaOH was additionally added dropwise to the solution of Example 2-13 to perform a stability evaluation by adjusting the final pH of the solution to acidic (pH 5.5) and basic (pH 8.5) conditions, and labeling purity was confirmed using HPLC in the same manner as in Example 2-7.
HCl and NaOH was additionally added dropwise to the solution of Example 2-14 to perform a stability evaluation by adjusting the final pH of the solution to acidic (pH 5.5) and basic (pH 8.5) conditions, and labeling purity was confirmed using HPLC in the same manner as in Example 2-7.

Compound: O=C(O)C[C@H](NC(=O)[C@@H]1CCCN(C(=O)CCC2CCNCC2)C1)c1cncc(OCCNC(=O)CN2CCN3CCN(CC(=O)O)CC(=O)[O][99Tc+]([O]C(=O)C3)[O]C(=O)C2)c1 [[Tc-99m]GP-104]
- purity (HPLC) ([1]; addition of cysteine after reaction, pH 3, 3 hours): 42.46%
- purity (HPLC) ([1]; addition of cysteine before reaction, pH 3, 0 hour): 95.6%
- purity (HPLC) ([1]; addition of cysteine before reaction, pH 7, 3 hours): 98.53%
- Purity ([2]; 165 nmol cysteine, acidic conditions, after 2 hours (Table 4)): ≤ 90%
- Purity ([2]; 165 nmol cysteine, basic conditions, until 2 hours (Table 4)): < 90%
- Purity ([2]; 165 nmol cysteine, neutral conditions, even after 4 hours (Table 4)): ≥ 90%
- purity (HPLC) ([2]; Ex 3-3, addition of cysteine after reaction, pH 3, 0 hour): 82.63%
- purity (HPLC) ([2]; Ex 3-3, addition of cysteine after reaction, pH 3, 1 hour): 70.01%
- purity (HPLC) ([2]; Ex 3-3, addition of cysteine after reaction, pH 3, 2 hours): 52.58%
- purity (HPLC) ([2]; Ex 3-3, addition of cysteine after reaction, pH 3, 4 hours): 30.38%
- purity (HPLC) ([2]; Ex 3-3, addition of cysteine after reaction, pH 7, 0 hour): 91.4%
- purity (HPLC) ([2]; Ex 3-3, addition of cysteine after reaction, pH 7, 1 hour): 91.42%
- purity (HPLC) ([2]; Ex 3-3, addition of cysteine after reaction, pH 7, 2 hours): 91.1%
- purity (HPLC) ([2]; Ex 3-3, addition of cysteine after reaction, pH 7, 3 hours): 90.3%
- purity (HPLC) ([2]; Ex 3-3, addition of cysteine after reaction, pH 7, 4 hours): 90.19%
- purity (HPLC) ([2]; Ex 3-3, addition of cysteine before reaction, pH 3, 1 hour): 92.7%
- purity (HPLC) ([2]; Ex 3-3, addition of cysteine before reaction, pH 3, 2 hours): 84.17%
- purity (HPLC) ([2]; Ex 3-3, addition of cysteine before reaction, pH 3, 3 hours): 76.77%
- purity (HPLC) ([2]; Ex 3-3, addition of cysteine before reaction, pH 3, 4 hours): 69.34%
- purity (HPLC) ([2]; Ex 3-3, addition of cysteine before reaction, pH 7, 0 hour): 94.84%
- purity (HPLC) ([2]; Ex 3-3, addition of cysteine before reaction, pH 7, 1 hour): 94.43%
- purity (HPLC) ([2]; Ex 3-3, addition of cysteine before reaction, pH 7, 2 hours): 97.66%
- purity (HPLC) ([2]; Ex 3-3, addition of cysteine before reaction, pH 7, 4 hours): 97.75%
- radiochemical purity ([2]; acidic conditions): ≥ 90%
- radiochemical purity ([2]; basic conditions): ≥ 80%
- radiochemical purity ([2]; pH of 7): ≥ 98%
- Purity ([2]; pH of 7 regardless of the timing of cysteine addition, even after 4 hours (text to Table 3)): ≥ 90%
- purity (HPLC) ([2]; solution of Example 2-8 (165 nmol cysteine), pH 5.5, 0 hr): 95.26%
- purity (HPLC) ([2]; solution of Example 2-8 (165 nmol cysteine), pH 5.5, 2 hr): 91.45%
- purity (HPLC) ([2]; solution of Example 2-8 (165 nmol cysteine), pH 5.5, 4 hr): 89.28%
- purity (HPLC) ([2]; solution of Example 2-8 (165 nmol cysteine), pH 7, 0 hr): 95.26%
- purity (HPLC) ([2]; solution of Example 2-8 (165 nmol cysteine), pH 7, 2 hr): 91.19%
- purity (HPLC) ([2]; solution of Example 2-8 (165 nmol cysteine), pH 7, 4 hr): 91.61%
- purity (HPLC) ([2]; solution of Example 2-8 (165 nmol cysteine), pH 8.5, 0 hr): 95.26%
- purity (HPLC) ([2]; solution of Example 2-8 (165 nmol cysteine), pH 8.5, 2 hr): 79.83%
- purity (HPLC) ([2]; solution of Example 2-8 (165 nmol cysteine), pH 8.5, 4 hr): 51.77%
- radiochemical purity (HPLC) ([2]; solution of Example 2-9 (82.5 nmol cysteine + 82.5 nmol VB1), pH 5.5, 0 hr): 100%
- radiochemical purity (HPLC) ([2]; solution of Example 2-9 (82.5 nmol cysteine + 82.5 nmol VB1), pH 5.5, 2 hr): 92.72%
- radiochemical purity (HPLC) ([2]; solution of Example 2-9 (82.5 nmol cysteine + 82.5 nmol VB1), pH 5.5, 4 hr): 91.20%
- radiochemical purity (HPLC) ([2]; solution of Example 2-9 (82.5 nmol cysteine + 82.5 nmol VB1), pH 7, 0 hr): 100%
- radiochemical purity (HPLC) ([2]; solution of Example 2-9 (82.5 nmol cysteine + 82.5 nmol VB1), pH 7, 2 hr): 98.63%
- radiochemical purity (HPLC) ([2]; solution of Example 2-9 (82.5 nmol cysteine + 82.5 nmol VB1), pH 7, 4 hr): 98.18%
- radiochemical purity (HPLC) ([2]; solution of Example 2-9 (82.5 nmol cysteine + 82.5 nmol VB1), pH 8.5, 0 hr): 100%
- radiochemical purity (HPLC) ([2]; solution of Example 2-9 (82.5 nmol cysteine + 82.5 nmol VB1), pH 8.5, 2 hr): 83.08%
- radiochemical purity (HPLC) ([2]; solution of Example 2-9 (82.5 nmol cysteine + 82.5 nmol VB1), pH 8.5, 4 hr): 80.97%
- radiochemical purity (HPLC) ([2]; solution of Example 2-10 (82.5 nmol cysteine + 82.5 nmol VB6), pH 5.5, 0 hr): 97.24%
- radiochemical purity (HPLC) ([2]; solution of Example 2-10 (82.5 nmol cysteine + 82.5 nmol VB6), pH 5.5, 2 hr): 90.29%
- radiochemical purity (HPLC) ([2]; solution of Example 2-10 (82.5 nmol cysteine + 82.5 nmol VB6), pH 5.5, 4 hr): 90.65%
- radiochemical purity (HPLC) ([2]; solution of Example 2-10 (82.5 nmol cysteine + 82.5 nmol VB6), pH 7, 0 hr): 97.24%
- radiochemical purity (HPLC) ([2]; solution of Example 2-10 (82.5 nmol cysteine + 82.5 nmol VB6), pH 7, 2 hr): 95.61%
- radiochemical purity (HPLC) ([2]; solution of Example 2-10 (82.5 nmol cysteine + 82.5 nmol VB6), pH 7, 4 hr): 96.25%
- radiochemical purity (HPLC) ([2]; solution of Example 2-10 (82.5 nmol cysteine + 82.5 nmol VB6), pH 8.5, 0 hr): 97.24%
- radiochemical purity (HPLC) ([2]; solution of Example 2-10 (82.5 nmol cysteine + 82.5 nmol VB6), pH 8.5, 2 hr): 95.61%
- radiochemical purity (HPLC) ([2]; solution of Example 2-10 (82.5 nmol cysteine + 82.5 nmol VB6), pH 8.5, 4 hr): 91.19%
- radiochemical purity (HPLC) ([2]; solution of Example 2-14 (82.5 nmol cysteine + 82.5 nmol VB6), pH 5.5, 0 hr): 100%
- radiochemical purity (HPLC) ([2]; solution of Example 2-14 (82.5 nmol cysteine + 82.5 nmol VB6), pH 5.5, 2 hr): 97.24%
- radiochemical purity (HPLC) ([2]; solution of Example 2-14 (82.5 nmol cysteine + 82.5 nmol VB6), pH 5.5, 4 hr): 95.61%
- radiochemical purity (HPLC) ([2]; solution of Example 2-14 (82.5 nmol cysteine + 82.5 nmol VB6), pH 7, 0 hr): 100%
- radiochemical purity (HPLC) ([2]; solution of Example 2-14 (82.5 nmol cysteine + 82.5 nmol VB6), pH 7, 2 hr): 98.56%
- radiochemical purity (HPLC) ([2]; solution of Example 2-14 (82.5 nmol cysteine + 82.5 nmol VB6), pH 7, 4 hr): 98.2%
- radiochemical purity (HPLC) ([2]; solution of Example 2-14 (82.5 nmol cysteine + 82.5 nmol VB6), pH 8.5, 0 hr): 100%
- radiochemical purity (HPLC) ([2]; solution of Example 2-14 (82.5 nmol cysteine + 82.5 nmol VB6), pH 8.5, 2 hr): 92.21%
- radiochemical purity (HPLC) ([2]; solution of Example 2-14 (82.5 nmol cysteine + 82.5 nmol VB6), pH 8.5, 4 hr): 89.62%
